Results from paper PMC7385433 (International Journal of Antimicrobial Agents, 2020).

Legend:
[1] = not told; cited from earlier work
[2] = system: Burkholderia pseudomallei K96243; set-up: species or system Galleria mellonella; settings: for larvae whose haemolymph was sterile of any bacteria / survival of Galleria larvae: in vivo
[3] = system: gyrase and topoisomerase IV; settings: cited from earlier work
[4] = system: Burkholderia pseudomallei K96243; assay type: in vivo, BALB/c mice; settings: for survival at 30 days post-infection: n = 5
B. pseudomallei [5] = test: microbe, parasite or virus in culture; assay type: cell-based; settings: Burkholderia pseudomallei, read-out: minimum inhibitory concentration (MIC)
in vivo = settings: female, BALB/c, mouse, ip, 15 mg/kg
[6] = in vivo
B. pseudomallei [7] = settings: ip; cited from earlier work

For `CO[C@@H]1[C@@H](OC(=O)c2ccc(C)[nH]2)[C@@H](O)[C@H](Oc2ccc3c(O)c(NC(=O)c4ccc(O)c(CC=C(C)C)c4)c(=O)oc3c2Cl)OC1(C)C` [clorobiocin], the “membrane permeability compared with novobiocin” value [1] is listed as “improved membrane permeability”, the “bacterial load in haemolymph (killing activity in vivo)” value (“bacterial load in haemolymph” below) [2] is listed as “significantly reduced the bacterial load” and the “larvae whose haemolymph was sterile of any bacteria” value [2] is listed as 100%. For the same molecule, the “survival of Galleria larvae” value [2] was “all Galleria larvae survived” and the “potency as inhibitor of gyrase and topoisomerase IV relative to novobiocin” value [3] was “more potent inhibitor”.

For `CC(C)(O/N=C(\C(=O)N[C@@H]1C(=O)N2C(C(=O)[O-])=C(C[n+]3ccccc3)CS[C@H]12)c1csc(N)n1)C(=O)O` [ceftazidime], the “B. pseudomallei present in lungs of surviving mice” value ([4]; mouse, in vivo) was “two of three”, the “bacteria in spleen of surviving mice” value ([4]; mouse, in vivo) was > 1 × 10^7 CFU and the “survival at 30 days post-infection” value [4] was 60%.

For `CO[C@@H]1[C@@H](OC(N)=O)[C@@H](O)[C@H](Oc2ccc3c(O)c(NC(=O)c4ccc(O)c(CC=C(C)C)c4)c(=O)oc3c2C)OC1(C)C` [novobiocin], the MIC (B. pseudomallei [5]) was less than 10 µg/mL, the “bacterial load in haemolymph” value [2] was “no significant killing activity” and the “survival of Galleria larvae” value [2] was “no larvae treated with novobiocin survived longer than 24 h post-infection”. It also gave an AUC (in vivo) of 33.2 µM·h, an AUC(0-inf) (in vivo) of 33.2 µM·h and an AUC(0-t) (in vivo) of 33.2 µM·h. For the same molecule, the Cmax (in vivo) was 10.7 µM, the Tmax (in vivo) was 1 h and the half-life (in vivo; t1/2) was 168 min. The “effect of DL-tryptophan on drug accumulation in tissue” value [6] was “No significant effect on drug accumulation in adipose or haemolymphatic tissue”.

In the case of coumermycin, the “activity against multiple strains of B. pseudomallei in vivo” value (B. pseudomallei [7]) is listed as “significant activity”, the “bacterial load in haemolymph” value [2] is listed as “significantly reduced the bacterial load” and the “larvae whose haemolymph was sterile of any bacteria” value [2] is listed as 60%. For the same molecule, the “survival of Galleria larvae” value [2] was “all Galleria larvae survived”, the “units with complete organ sterility” value ([4]; mouse, in vivo) was 40% and the “survival at 30 days post-infection” value [4] was 40%.
